Test results published in ChEMBL document CHEMBL4800729 (2021).

How the values were obtained:
[1] = target: 3-phosphoinositide-dependent protein kinase 1 (Homo sapiens) (UniProt O15530); test: PDK1(h) Millipore kinase panel; settings: Compound concentration 1.0 uM
[2] = target: Cyclin-dependent kinase 14/Cyclin-Y (Homo sapiens) (UniProt O94921+Q8ND76); test: CDK14/cyclinY(h) Millipore kinase panel; type: protein-complex assay; settings: Compound concentration 1.0 uM
[3] = target: Ribosomal protein S6 kinase alpha-3 (Homo sapiens) (UniProt P51812); test: Rsk2(h) Millipore kinase panel; settings: Compound concentration 1.0 uM
[4] = target: GABA-A receptor; anion channel (Rattus norvegicus) (UniProt O09028+P15431+P18506+P18508+P19969+P20236+P23574+P23576+P28471+P28473+P30191+P62813+P63079+P63138+Q91ZM7+Q9ES14); settings: Compound concentration 10.0 uM
[5] = target: Cyclin-dependent kinase-like 4 (Homo sapiens) (UniProt Q5MAI5); test: CDKL4(h) Millipore kinase panel; settings: Compound concentration 1.0 uM
[6] = target: Tyrosine-protein kinase ITK/TSK (Homo sapiens) (UniProt Q08881); test: Itk(h) Millipore kinase panel; settings: Compound concentration 1.0 uM
[7] = target: 5-hydroxytryptamine receptor 2B (Homo sapiens, UniProt P41595); settings: Compound concentration 10.0 uM
5-hydroxytryptamine receptor 2B, sequence (P41595 whole entry): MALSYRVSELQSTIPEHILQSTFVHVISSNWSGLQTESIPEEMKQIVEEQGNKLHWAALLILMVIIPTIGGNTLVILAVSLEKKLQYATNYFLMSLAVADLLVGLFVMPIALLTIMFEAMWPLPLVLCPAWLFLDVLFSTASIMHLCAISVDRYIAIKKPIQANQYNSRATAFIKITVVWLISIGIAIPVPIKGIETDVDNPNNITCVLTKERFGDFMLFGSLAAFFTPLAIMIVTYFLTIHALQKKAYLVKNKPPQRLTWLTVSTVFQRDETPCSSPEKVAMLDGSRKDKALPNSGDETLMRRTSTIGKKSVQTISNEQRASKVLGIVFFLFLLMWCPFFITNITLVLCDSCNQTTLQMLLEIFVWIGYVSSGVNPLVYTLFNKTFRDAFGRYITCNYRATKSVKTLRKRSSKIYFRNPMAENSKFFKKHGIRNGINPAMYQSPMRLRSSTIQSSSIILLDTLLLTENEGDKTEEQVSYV

[8] = target: Tyrosine-protein kinase ABL1 (Homo sapiens) (UniProt P00519); test: Abl(h) Millipore kinase panel; settings: Compound concentration 1.0 uM
[9] = target: Ephrin type-B receptor 3 (Homo sapiens) (UniProt P54753); test: EphB3(h) Millipore kinase panel; settings: Compound concentration 1.0 uM
[10] = target: Protein kinase C eta type (Homo sapiens) (UniProt P24723); test: PKCeta(h) Millipore kinase panel; settings: Compound concentration 1.0 uM
Protein kinase C eta type (Homo sapiens), sequence (P24723 whole entry): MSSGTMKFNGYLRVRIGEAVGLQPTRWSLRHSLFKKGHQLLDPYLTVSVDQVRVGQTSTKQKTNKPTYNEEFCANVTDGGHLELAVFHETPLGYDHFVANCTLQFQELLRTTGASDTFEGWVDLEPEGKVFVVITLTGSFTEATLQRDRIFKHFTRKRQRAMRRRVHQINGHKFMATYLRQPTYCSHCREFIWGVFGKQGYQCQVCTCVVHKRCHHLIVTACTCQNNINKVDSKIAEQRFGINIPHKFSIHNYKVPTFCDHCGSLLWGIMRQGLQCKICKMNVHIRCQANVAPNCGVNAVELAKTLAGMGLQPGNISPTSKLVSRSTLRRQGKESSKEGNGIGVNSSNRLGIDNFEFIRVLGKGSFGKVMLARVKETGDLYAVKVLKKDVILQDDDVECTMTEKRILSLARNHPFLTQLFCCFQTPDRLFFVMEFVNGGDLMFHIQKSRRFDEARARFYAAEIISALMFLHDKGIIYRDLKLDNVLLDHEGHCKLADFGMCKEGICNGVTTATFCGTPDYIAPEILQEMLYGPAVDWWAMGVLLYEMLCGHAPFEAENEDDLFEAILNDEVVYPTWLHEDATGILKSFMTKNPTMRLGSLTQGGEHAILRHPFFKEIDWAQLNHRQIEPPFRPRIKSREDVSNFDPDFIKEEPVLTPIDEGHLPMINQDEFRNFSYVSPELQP

[11] = target: MAPK/MAK/MRK overlapping kinase (Homo sapiens) (UniProt Q9UQ07); test: MOK(h) Millipore kinase panel; settings: Compound concentration 1.0 uM
MAPK/MAK/MRK overlapping kinase (Homo sapiens), sequence (Q9UQ07 whole entry): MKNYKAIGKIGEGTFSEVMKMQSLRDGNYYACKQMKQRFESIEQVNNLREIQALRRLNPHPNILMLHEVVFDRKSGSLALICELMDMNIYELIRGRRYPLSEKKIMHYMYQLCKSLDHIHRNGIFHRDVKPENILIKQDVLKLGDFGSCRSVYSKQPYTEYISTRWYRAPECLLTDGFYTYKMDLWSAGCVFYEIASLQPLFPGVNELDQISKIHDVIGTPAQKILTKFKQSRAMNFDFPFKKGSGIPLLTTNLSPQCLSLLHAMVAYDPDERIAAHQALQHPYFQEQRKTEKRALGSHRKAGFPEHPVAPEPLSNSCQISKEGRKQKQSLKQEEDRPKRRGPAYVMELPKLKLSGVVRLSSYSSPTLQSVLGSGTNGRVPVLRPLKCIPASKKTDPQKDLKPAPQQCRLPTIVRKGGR

[12] = target: Cyclin-dependent kinase 2/cyclin E (Homo sapiens) (UniProt P24864+P24941+O96020); test: CDK2/cyclinE(h) Millipore kinase panel; type: protein-complex assay; settings: Compound concentration 1.0 uM
[13] = target: Tyrosine-protein kinase CSK (Homo sapiens) (UniProt P41240); test: CSK(h) Millipore kinase panel; settings: Compound concentration 1.0 uM
Tyrosine-protein kinase CSK (Homo sapiens), sequence (P41240 2-450 limits assumed): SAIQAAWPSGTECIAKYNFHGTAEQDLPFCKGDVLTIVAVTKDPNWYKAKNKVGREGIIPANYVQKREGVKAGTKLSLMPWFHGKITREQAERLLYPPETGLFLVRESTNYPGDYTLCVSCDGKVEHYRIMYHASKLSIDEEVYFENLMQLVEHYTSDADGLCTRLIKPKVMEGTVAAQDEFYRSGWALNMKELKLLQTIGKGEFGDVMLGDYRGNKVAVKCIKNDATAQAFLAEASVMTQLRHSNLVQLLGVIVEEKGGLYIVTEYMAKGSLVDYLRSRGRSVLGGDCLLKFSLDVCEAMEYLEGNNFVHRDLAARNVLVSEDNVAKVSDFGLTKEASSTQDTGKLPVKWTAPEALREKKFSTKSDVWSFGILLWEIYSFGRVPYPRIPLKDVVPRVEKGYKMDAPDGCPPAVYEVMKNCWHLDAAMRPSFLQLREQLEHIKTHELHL

[14] = target: Mitogen-activated protein kinase kinase kinase 5 (Homo sapiens) (UniProt Q99683); test: ASK1(h) Millipore kinase panel; settings: Compound concentration 1.0 uM
[15] = target: Insulin receptor-related protein (Homo sapiens) (UniProt P14616); test: IRR(h) Millipore kinase panel; settings: Compound concentration 1.0 uM
[16] = target: Tyrosine-protein kinase Lck (Homo sapiens) (UniProt P06239); test: Lck(h) Millipore kinase panel; settings: Compound concentration 1.0 uM
Tyrosine-protein kinase Lck (Homo sapiens), sequence (P06239 2-509 limits assumed): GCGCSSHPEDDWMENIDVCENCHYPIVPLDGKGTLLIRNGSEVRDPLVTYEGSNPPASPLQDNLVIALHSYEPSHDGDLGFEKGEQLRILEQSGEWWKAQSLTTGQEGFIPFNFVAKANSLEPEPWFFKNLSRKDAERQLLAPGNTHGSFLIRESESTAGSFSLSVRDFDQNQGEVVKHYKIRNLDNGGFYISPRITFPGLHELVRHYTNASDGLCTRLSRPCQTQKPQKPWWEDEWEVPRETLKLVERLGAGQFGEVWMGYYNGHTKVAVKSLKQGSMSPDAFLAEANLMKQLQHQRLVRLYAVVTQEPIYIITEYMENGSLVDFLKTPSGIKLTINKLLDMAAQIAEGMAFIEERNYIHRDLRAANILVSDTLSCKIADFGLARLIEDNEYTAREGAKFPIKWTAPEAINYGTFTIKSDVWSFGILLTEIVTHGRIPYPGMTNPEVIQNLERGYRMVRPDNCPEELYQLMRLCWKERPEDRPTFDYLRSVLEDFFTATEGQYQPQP

[17] = target: Prostaglandin G/H synthase 2 (Homo sapiens) (UniProt P35354); test: Cyclooxygenase COX-2 Eurofins-Panlabs enzyme assay; parameters: substrate with concentration; settings: Compound concentration 10.0 uM
[18] = target: Dual specificity mitogen-activated protein kinase kinase 2 (Homo sapiens) (UniProt P36507); test: MEK2(h) Millipore kinase panel; settings: Compound concentration 1.0 uM
Dual specificity mitogen-activated protein kinase kinase 2 (Homo sapiens), sequence (P36507 whole entry): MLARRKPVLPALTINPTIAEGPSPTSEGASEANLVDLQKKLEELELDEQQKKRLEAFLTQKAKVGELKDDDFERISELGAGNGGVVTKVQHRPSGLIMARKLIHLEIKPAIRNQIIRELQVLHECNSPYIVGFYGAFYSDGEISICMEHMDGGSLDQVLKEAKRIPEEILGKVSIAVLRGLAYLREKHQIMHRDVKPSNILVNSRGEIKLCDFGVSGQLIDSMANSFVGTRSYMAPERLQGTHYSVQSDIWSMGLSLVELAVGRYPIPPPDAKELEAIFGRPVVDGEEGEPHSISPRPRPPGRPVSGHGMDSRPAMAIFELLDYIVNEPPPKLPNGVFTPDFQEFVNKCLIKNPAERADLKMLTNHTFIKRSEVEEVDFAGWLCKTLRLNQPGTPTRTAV

[19] = target: Calcium/calmodulin-dependent protein kinase kinase 1 (Homo sapiens) (UniProt Q8N5S9); test: CaMKK1(h) Millipore kinase panel; settings: Compound concentration 1.0 uM
[20] = target: Mast/stem cell growth factor receptor Kit (Homo sapiens) (UniProt P10721); test: cKit(h) Millipore kinase panel; settings: Compound concentration 1.0 uM
[21] = target: Phosphatidylinositol 4-phosphate 5-kinase type-1 gamma (Homo sapiens) (UniProt O60331); test: PIP5K1g(h) Millipore kinase panel; settings: Compound concentration 1.0 uM
[22] = target: Inhibitor of nuclear factor kappa-B kinase subunit alpha (Homo sapiens) (UniProt O15111); test: IKKalpha(h) Millipore kinase panel; settings: Compound concentration 1.0 uM
[23] = target: Tyrosine-protein kinase JAK2 (Homo sapiens) (UniProt O60674); test: JAK2(h) Millipore kinase panel; settings: Compound concentration 1.0 uM
[24] = target: Ephrin type-A receptor 8 (Homo sapiens) (UniProt P29322); test: EphA8(h) Millipore kinase panel; settings: Compound concentration 1.0 uM
[25] = target: Macrophage colony-stimulating factor 1 receptor (Homo sapiens) (UniProt P07333); test: Fms(h) Millipore kinase panel; settings: Compound concentration 1.0 uM
[26] = target: Motilin receptor (Homo sapiens) (UniProt O43193); settings: Compound concentration 10.0 uM
[27] = target: Serine/threonine-protein kinase NIM1 (Homo sapiens) (UniProt Q8IY84); test: NIM1(h) Millipore kinase panel; settings: Compound concentration 1.0 uM
Serine/threonine-protein kinase NIM1 (Homo sapiens), sequence (Q8IY84 whole entry): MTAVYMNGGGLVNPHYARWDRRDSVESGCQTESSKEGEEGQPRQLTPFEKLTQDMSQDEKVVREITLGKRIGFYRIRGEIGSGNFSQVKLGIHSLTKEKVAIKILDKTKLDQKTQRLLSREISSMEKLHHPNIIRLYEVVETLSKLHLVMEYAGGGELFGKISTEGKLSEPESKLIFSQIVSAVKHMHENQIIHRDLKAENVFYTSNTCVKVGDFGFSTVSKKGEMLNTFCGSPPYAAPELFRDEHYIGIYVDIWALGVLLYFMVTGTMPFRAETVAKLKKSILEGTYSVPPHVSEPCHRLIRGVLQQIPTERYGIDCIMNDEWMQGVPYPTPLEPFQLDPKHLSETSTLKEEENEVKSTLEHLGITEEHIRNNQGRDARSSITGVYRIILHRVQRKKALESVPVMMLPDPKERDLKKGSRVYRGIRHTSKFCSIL

[28] = target: Mitogen-activated protein kinase kinase kinase 11 (Homo sapiens) (UniProt Q16584); test: MLK3(h) Millipore kinase panel; settings: Compound concentration 1.0 uM
[29] = target: Phosphatidylinositol 4-phosphate 5-kinase type-1 alpha (Homo sapiens) (UniProt Q99755); test: PIP5K1a(h) Millipore kinase panel; settings: Compound concentration 1.0 uM
[30] = target: Histamine H1 receptor (Homo sapiens) (UniProt P35367); settings: Compound concentration 10.0 uM
[31] = target: Platelet-derived growth factor receptor alpha (Homo sapiens) (UniProt P16234); test: PDGFRalpha Millipore kinase panel; settings: Compound concentration 1.0 uM
[32] = target: Interleukin-1 receptor-associated kinase 4 (Homo sapiens) (UniProt Q9NWZ3); test: IRAK4(h) Millipore kinase panel; settings: Compound concentration 1.0 uM
Interleukin-1 receptor-associated kinase 4 (Homo sapiens), sequence (Q9NWZ3 whole entry): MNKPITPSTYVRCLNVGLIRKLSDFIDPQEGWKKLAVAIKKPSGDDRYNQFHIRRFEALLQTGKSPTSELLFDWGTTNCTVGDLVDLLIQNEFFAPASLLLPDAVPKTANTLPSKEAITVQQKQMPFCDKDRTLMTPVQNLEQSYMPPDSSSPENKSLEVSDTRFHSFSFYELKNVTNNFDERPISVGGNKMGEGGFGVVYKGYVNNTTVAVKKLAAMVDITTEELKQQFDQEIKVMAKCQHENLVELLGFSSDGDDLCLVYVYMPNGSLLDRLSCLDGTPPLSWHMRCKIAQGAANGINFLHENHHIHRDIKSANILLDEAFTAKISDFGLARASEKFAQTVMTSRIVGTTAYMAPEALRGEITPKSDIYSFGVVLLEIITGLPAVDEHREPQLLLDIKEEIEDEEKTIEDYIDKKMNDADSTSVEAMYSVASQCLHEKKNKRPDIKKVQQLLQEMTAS

[33] = target: CDK18/Cyclin Y (Homo sapiens) (UniProt Q07002+Q8ND76); test: CDK18/cyclinY(h) Millipore kinase panel; type: protein-complex assay; settings: Compound concentration 1.0 uM
[34] = target: Cytoplasmic tyrosine-protein kinase BMX (Homo sapiens) (UniProt P51813); test: Bmx(h) Millipore kinase panel; settings: Compound concentration 1.0 uM
[35] = target: Cyclin-dependent kinase-like 1 (Homo sapiens) (UniProt Q00532); test: CDKL1(h) Millipore kinase panel; settings: Compound concentration 1.0 uM
Cyclin-dependent kinase-like 1 (Homo sapiens), sequence (Q00532 whole entry): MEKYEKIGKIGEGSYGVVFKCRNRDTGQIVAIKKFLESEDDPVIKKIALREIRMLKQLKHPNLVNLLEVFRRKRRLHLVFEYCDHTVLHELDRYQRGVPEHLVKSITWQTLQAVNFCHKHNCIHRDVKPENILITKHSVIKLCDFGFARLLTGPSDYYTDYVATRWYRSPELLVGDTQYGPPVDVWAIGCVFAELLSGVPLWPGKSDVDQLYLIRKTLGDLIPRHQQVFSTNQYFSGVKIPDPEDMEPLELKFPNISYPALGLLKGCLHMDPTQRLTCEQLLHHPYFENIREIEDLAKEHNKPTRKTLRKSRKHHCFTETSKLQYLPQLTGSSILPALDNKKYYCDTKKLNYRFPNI

[36] = target: MAP kinase-activated protein kinase 5 (Homo sapiens) (UniProt Q8IW41); test: PRAK(h) Millipore kinase panel; settings: Compound concentration 1.0 uM
MAP kinase-activated protein kinase 5 (Homo sapiens), sequence (Q8IW41 whole entry): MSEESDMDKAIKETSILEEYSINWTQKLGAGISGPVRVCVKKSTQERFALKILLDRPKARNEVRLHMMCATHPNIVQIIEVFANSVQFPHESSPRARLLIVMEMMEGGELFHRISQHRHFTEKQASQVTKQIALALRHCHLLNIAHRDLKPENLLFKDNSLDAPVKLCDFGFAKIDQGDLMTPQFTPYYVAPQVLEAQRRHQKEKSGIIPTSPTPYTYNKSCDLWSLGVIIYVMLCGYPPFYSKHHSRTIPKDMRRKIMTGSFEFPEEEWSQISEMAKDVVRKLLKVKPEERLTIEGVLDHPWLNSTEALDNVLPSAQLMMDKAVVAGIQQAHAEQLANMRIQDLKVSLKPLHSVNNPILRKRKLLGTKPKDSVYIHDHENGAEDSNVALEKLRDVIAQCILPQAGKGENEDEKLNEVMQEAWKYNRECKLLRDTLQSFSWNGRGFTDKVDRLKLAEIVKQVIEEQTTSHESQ

[37] = target: Testis-specific serine/threonine-protein kinase 3 (Homo sapiens) (UniProt Q96PN8); test: TSSK3(h) Millipore kinase panel; settings: Compound concentration 1.0 uM
Testis-specific serine/threonine-protein kinase 3 (Homo sapiens), sequence (Q96PN8 whole entry): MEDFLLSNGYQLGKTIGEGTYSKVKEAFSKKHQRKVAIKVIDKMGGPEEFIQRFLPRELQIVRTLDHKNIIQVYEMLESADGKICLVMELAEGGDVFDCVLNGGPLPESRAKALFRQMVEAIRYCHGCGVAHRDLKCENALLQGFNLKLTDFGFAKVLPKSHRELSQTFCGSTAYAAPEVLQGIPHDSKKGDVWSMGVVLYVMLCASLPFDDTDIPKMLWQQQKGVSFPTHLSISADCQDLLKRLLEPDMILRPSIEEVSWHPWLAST

[38] = target: Wee1-like protein kinase (Homo sapiens) (UniProt P30291); test: WEE1(h) Millipore kinase panel; settings: Compound concentration 1.0 uM
[39] = target: Androgen receptor (Homo sapiens) (UniProt P10275); settings: Compound concentration 10.0 uM
[40] = target: Sodium-dependent noradrenaline transporter (Homo sapiens) (UniProt P23975); settings: Compound concentration 10.0 uM
[41] = target: Ribosomal protein S6 kinase alpha-6 (Homo sapiens) (UniProt Q9UK32); test: Rsk4(h) Millipore kinase panel; settings: Compound concentration 1.0 uM

Question: Which results are given for `CC[C@@H](Nc1c(C#N)c(-c2ccc(-c3cccc(C)c3F)cc2)nc2cnccc12)C(=O)O` [BAY-091]?
Answer: inhibition [1]: -8.72%; inhibition [2]: 18.1%; inhibition [3]: 1.78%; inhibition [4]: 12%; inhibition [5]: 12.6%; inhibition [6]: 9.18%; inhibition [7]: 98%; inhibition [8]: 12.1%; inhibition [9]: -5.61%; inhibition [10]: 3.77%; inhibition [11]: 5.44%; inhibition [12]: 7.13%; inhibition [13]: 6.94%; inhibition [14]: -9.98%; inhibition [15]: 6.25%; inhibition [16]: -0.68%; inhibition [17]: 29%; inhibition [18]: -9.56%; inhibition [19]: 5.03%; inhibition [20]: 22.3%; inhibition [21]: 1.51%; inhibition [22]: 3.94%; inhibition [23]: -5.62%; inhibition [24]: -6.72%; inhibition [25]: -5.04%; inhibition [26]: -2%; inhibition [27]: 12%; inhibition [28]: 21.1%; inhibition [29]: 10%; inhibition [30]: 27%; inhibition [31]: 9.33%; inhibition [32]: 6.22%; inhibition [33]: 10.6%; inhibition [34]: 3.69%; inhibition [35]: 4.02%; inhibition [36]: 23.6%; inhibition [37]: 8.88%; inhibition [38]: 5.28%; inhibition [39]: 14%; inhibition [40]: 25%; inhibition [41]: -6.19%
